From PMC6957531, “A butanolic fraction from the standardized stem extract of Cassia occidentalis L delivered by a self-emulsifying drug delivery system protects rats from glucocorticoid-induced osteopenia and muscle atrophy” (Scientific Reports, 2020)

Tests used:
in vivo = settings: rat; for AUC / Cmax / increase of relative bioavailability by CSE-BuF compared to CSE-Bu / %Fr (relative bioavailability): male, Sprague Dawley; for AUC / Cmax / %Fr (relative bioavailability): 250 mg/kg
Experimental: All analytes were analyzed using API-QTRAP 4000 mass spectrometer (ABSciex, Canada) equipped with electrospray ionization (ESI) source in negative ion ([M-H]^−) mode [apigenin, isovitexin, emodin, luteolin, 3′,4′,7-trihydroxyflavone (THF), and fenofibric acid (FFA)] and quantified using Analyst 1.6 software (Applied Biosystems, MDS Sciex Toronto, Canada). Quantification was performed by multi-reaction monitoring (MRM), by monitoring the parent ion to product ion transition of 269.3/116.9 for apigenin, 431.2/311 for isovitexin, 269.1/224.9 for emodin, 284.9/133 for luteolin, 268.9/132.8 for THF, 316.9/230.9 for FFA (IS for apigenin, isovitexin, emodin, luteolin, and THF). Compound parameters, viz. declustering potential (V), entrance potential (V), collision energy, collision exit potential were −76, −10, −49, and −5 for apigenin; −100, −10, −20 and −15 for isovitexin; −100, −10, −40, and −10 for emodin; −100, −10, −50, and −20 for luteolin; −100, −10, −40, and −10 for THF; −55, −10, −12 and −10 for FFA; respectively. Source parameters, viz. curtain gas (psi), collision gas, ionspray voltage (V), ion source temperature (°C), nebulizer gas (GS1, psi) and turbo ion gas (GS2, psi) for apigenin, isovitexin, emodin, luteolin, THF, and FFA were 30, high, −4500, 500, 50, 50 respectively.
Shimadzu UFLC system (Kyoto, Japan) equipped with a binary pump (LC-20AD), a degasser (DGU-20A3), an autosampler (SIL-HTc) and a column oven (CTO-20AC) was used to inject the samples. The chromatographic separation of apigenin, isovitexin, emodin, luteolin, THF and FFA were performed on Phenomenex Luna (C18 (2), 100A, 150 × 4.6 mm, 3 μ) column with a mobile phase consisting of methanol: 10 mM ammonium acetate, 95:05 (v/v) at 0.6 mL/min flow rate. The temperature of the column oven was set at 40 °C during analysis. 10 µL samples were injected for quantification.
For extraction of apigenin, isovitexin, emodin, luteolin, THF, liquid-liquid extraction (LLE) method was applied for processing rat plasma. Plasma (100 µL) was incubated with 50 µL β-glucuronidase enzyme (2 mg/mL in 100 mM ammonium acetate buffer pH 5), and 50 µL ammonium acetate buffer (100 mM, pH 5) for 2 h at 37°C on water shaking bath. 200 µL ACN containing IS (FFA, 100 ng/mL) was added to plasma, vortex for 15 sec, and then 100 µL 0.1% formic acid (in 10 mM ammonium formate) was added. After vortexing for 5 min on vortexer (IKA^(R) VIBRAX VXR basic) at 1200 rpm, 2 mL ethyl acetate was added. The mixture was again vortexed for 10 min and then centrifuged at 10000 rpm for 5 min. The supernatant (1.5 mL) was transferred into Ria vial and completely dried in a TurboVap. The dried residue was reconstituted with 100 µL of mobile phase and analyzed by LC-MS/MS[44].
For determination of osteogenic compounds in the plasma of rats given CSE-Bu and CSE-BuF, we recruited male Sprague Dawley (SD) rats (220 ± 20 g) and were fasted overnight with free access to water. Rats were divided into 2 groups consisting of 6/group. One group received CSE-Bu (250 mg/kg/oral) and the other received CSE-BuF (250 mg/kg/oral). Blood (300 µL) was collected into 0.5 ml centrifuged tube containing EDTA at 0.25, 0.5, 1, 2, 4, 8, 12, 24, and 48 h and plasma was separated followed by centrifugation at 10000 rpm for 10 min and stored at -80 °C for further analysis. For pharmacokinetic analysis, plasma concentration versus time was plotted and analyzed by non-compartmental analysis method using WinNonlin (Pharsight, Mountain View, CA) software.

[1] = design: method as in PMID 30703497; settings: cited from earlier work
bone = settings: cited from earlier work
[2] = assay type: in vivo
Experimental: (§1) All treatments lasted for 4 weeks.
Body composition of live rats was analyzed using an Echo-MRI Body Composition Analyzer E26-226-RM (EchoMRI LLC, USA) as per our previously described method[14],[47]–[50].

femur diaphysis = experiment: GIO model: bone dynamic histomorphometry (double calcein labeling); assay type: in vivo, male SD rats; settings: versus control (Veh)
Experimental: as §1
For dynamic histomorphometric measurements, double calcein labeling was performed with an interval of 10 days between two calcein injections. We measured the periosteal perimeter, single-labeled surface (sLS), double labeled surface (dLS), and interlabeled thickness (IrLTh).

[3] = system: L5 vertebra and femur diaphysis; experiment: GIO model: bone strength (L5 compression, femur 3-point bending); assay type: in vivo, male SD rats
Experimental: as §1
Bone mechanical strength was measured by three-point bending test for femur diaphysis and compression test for L5 vertebrae using a bone strength tester TK 252 C (Muromachi Kikai Co. Ltd, Tokyo, Japan) according to a previously published protocol[14],[52].

[4] = system: serum PINP, CTX-I, sclerostin (SOST); experiment: GIO model: serum biochemical markers by ELISA; assay type: in vivo, male SD rats
Experimental: as §1
(§2) The serum samples were collected from blood by centrifugation at 3000 rpm. Serum cross-linked C-telopeptide of Type I collagen (CTX-I), procollagen type I N-terminal propeptide (PINP), sclerostin (SOST), interleukin 1 beta (IL-1β) levels were determined by ELISA (MyBioSource, USA) following the manufacturer’s protocols.

miR-29a, miR-17, miR-20a = experiment: GIO model: miRNA expression in bones (TaqMan assay); design: species or system male SD rats; settings: rat, in vivo
Excerpt: as §1
TaqMan assay (Thermo Fisher Scientific, USA) was used to determine miRNA expression in bones. Specific assay was designed based on published sequence using Thermo Fisher miRNA assay design tool. Assay ID of different miRNA was; hsa-miR-29a (OO2112), hsa-miR-17 (OO2308), hsa-miR-20a (OOO580) and U6 snRNA (OO1973)[54].

[5] = system: GILZ mRNA in thymus and bone; serum IL-1β; experiment: Evaluation of the anti-inflammatory response (GILZ mRNA, serum IL-1β); design: species or system male SD rats; settings: rat, in vivo
Experimental: as §2
Primer sequences are listed below:
Serum IL-1β level were measured to evaluate the effect of CSE-BuF on glucocorticoid-mediated anti-inflammatory response.

gastrocnemius muscle = experiment: GIO model: muscle histomorphometry; assay type: in vivo, male SD rats; settings: versus control
Experimental: as §1
Gastrocnemius muscles were carefully dissected and stored in chilled PBS for 48 h. Tissues were then transferred to 30% sucrose solution (in PBS) at 4 °C until they sank to the bottom. Tissues were embedded in OCT tissue freezing medium (Leica Bio systems, India) and cryo-sections (7 µm) were made using a Cryotome™ FSE Cryostat (Thermo Scientific). Tissue sections were collected on poly-L-lysine coated slides. For H&E staining, sections were rehydrated in PBS for 10 min and fixed in 10% formalin for 3 min. Then H&E staining was performed and mounted with DPX (Sigma). Quantitative analysis for determining cross-sectional area and Feret’s diameter of the muscle fibers were performed using Image J software[50],[56].

[6] = system: atrogin 1 and MuRF1 in gastrocnemius muscle; experiment: GIO model: immunoblotting of muscle atrogenes; design: species or system male SD rats; settings: rat, in vivo
Experimental: as §1
Gastrocnemius muscle samples were collected from each group and protein lysates were prepared to determine the levels of muscle atrogenes [atrogin 1], and muscle ring finger protein (MuRF1). Relative expression of these proteins was detected by immunoblot analysis using specific antibodies againts atrogin 1 (Abcam; 1:1000 dilution), MuRF1 (Santa Cruz Biotechnology; 1:1000 dilution), and GAPDH (Merck Millipore; 1:1000 dilution). Densitometric analyses of immunoblots were performed using ImageJ software.

[7] = system: OCN, TRAP, DMP-1, MEPE, RANKL mRNA in bones; experiment: GIO model: osteoblast-, osteoclast- and osteocyte-specific genes in bones by qPCR; settings: rat, in vivo
[8] = in vivo, AUC, CSE-BuF at 250 mg/kg orally, rat plasma, Mean ± SD
[9] = in vivo, CSE-BuF at 250 mg/kg orally, rat plasma, Mean ± SD
[10] = 4 weeks, MP 5 mg/kg s.c. daily, CSE-BuF 50 mg/kg oral daily, mean ± SEM, n = 10/group

Compound	AUC (in vivo; po, AUC) [ng·h/mL]	Cmax (in vivo; po) [ng/mL]	plasma level after single oral dosing of CSE-Bu (in words) (in vivo)	plasma level after single oral dosing of CSE-BuF (in words) (in vivo)	AUC (in vivo; [8]) [ng·h/mL]	Cmax (in vivo; [9]) [ng/mL]	in vivo bone conserving effect (bone)	increase of relative bioavailability by CSE-BuF compared to CSE-Bu (in vivo; po) [%]	%Fr (relative bioavailability) (in vivo; po) [%]	other results
O=c1cc(-c2ccc(O)cc2)oc2cc(O)c([C@@H]3O[C@H](CO)[C@@H](O)[C@H](O)[C@H]3O)c(O)c12 [Apigenin 6-C-glucoside Or Isovitexin, Apigenin 6-C-glucoside]			not detectable	detectable and measured in plasma	17.9 ± 10.4	7.74 ± 4.29				osteogenic effect in vitro among compounds of CSE-Bu [1]: best osteogenic effect in vitro; in vivo osteogenic effect (bone; mice, ref unpublished data, S. Pal and N. Chattopadhyay): has in vivo osteogenic effect in mice
Cc1cc(O)c2c(c1)C(=O)c1cc(O)cc(O)c1C2=O [Emodin]			could be measured in plasma	increases	239 ± 31.1	29.2 ± 13	in vivo bone conserving effect has been reported	279	379.68 ± 87.63	AUC (in vivo; in vivo, AUC, CSE-Bu at 250 mg/kg orally, rat plasma, Mean ± SD): 69.3 ± 33.2 ng·h/mL; Cmax (in vivo; in vivo, CSE-Bu at 250 mg/kg orally, rat plasma, Mean ± SD): 12.3 ± 3.8 ng/mL
C[C@H]1C[C@@H]2[C@H]([C@@H](O)C[C@@]3(C)[C@H]2CC[C@]3(O)C(=O)CO)[C@@]2(C)C=CC(=O)C=C12 [MP, Methylprednisolone]										Body weight [2, 10]: 239.86 ± 5.71 gm; Fat Mass [2, 10]: 6.12 ± 0.58 %; Lean Mass [2, 10]: 71.96 ± 2.43 %; decrease of fat mass compared to control ([2]; rat, in vivo): 40%; decrease of lean mass compared to control ([2]; rat, in vivo): 11%; mineralizing surface (pMS/BS), mineral apposition rate (pMAR) and bone formation rate (pBFR/BS) (femur diaphysis): significant decreases; strength parameters (peak load, energy to failure and stiffness) [3]: decreased all strength parameters; serum sclerostin ([4]; rat, in vivo): significantly increased; serum CTX-I (bone resorption marker) ([4]; versus control (Veh)): increased; serum PINP (bone formation marker) ([4]; versus control (Veh)): suppressed; levels of miRNA 17, 20a and 29a in bones (miR-29a, miR-17, miR-20a): significant decreases; GILZ mRNA in thymus and bone [5]: robust increase; serum IL-1β [5]: suppressed; cross-sectional area and Feret's diameter of gastrocnemius muscle (gastrocnemius muscle): significantly reduced; atrogin and MuRF-1 protein levels in muscle [6]: increased; RANKL mRNA in bones [7]: robust increase; TRAP mRNA in bones [7]: robust increase; mRNA levels of osteocyte markers DMP-1 and MEPE in bones [7]: significant decrease; osteocalcin (OCN) mRNA level in bones [7]: significantly suppressed

Further lines, with some results ahead:

AUC (in vivo; po, AUC) [ng·h/mL]	Cmax (in vivo; po) [ng/mL]	plasma level after single oral dosing of CSE-Bu (in words) (in vivo)	plasma level after single oral dosing of CSE-BuF (in words) (in vivo)	Compound	AUC (in vivo; [8]) [ng·h/mL]	Cmax (in vivo; [9]) [ng/mL]	in vivo bone conserving effect (bone)	increase of relative bioavailability by CSE-BuF compared to CSE-Bu (in vivo; po) [%]	%Fr (relative bioavailability) (in vivo; po) [%]	other results
764 ± 382	201 ± 107	not detectable	detectable and measured in plasma	O=c1cc(-c2ccc(O)c(O)c2)oc2cc(O)ccc12 [3′,4′,7-trihydroxyflavone (THF), 3′,4′,7-trihydroxyflavone]						
2.2 ± 1.15	3.98 ± 3.03	not detectable	detectable and measured in plasma	O=c1cc(-c2ccc(O)cc2)oc2cc(O)cc(O)c12 [Apigenin]			in vivo bone conserving effect has been reported			
259 ± 144		could be measured in plasma	increases	O=c1cc(-c2ccc(O)c(O)c2)oc2cc(O)cc(O)c12 [Luteolin]			in vivo bone conserving effect has been reported	36	136.94 ± 17.14	AUC (in vivo; po): 456.33 ± 131.28 ng·h/mL
